# Patent US11905274B2, “Receptor inhibitors, pharmaceutical compositions comprising the same and use thereof” (BEIJING TIDE PHARMACEUTICAL CO., LTD., priority 2018, dated 2024)
# Where two headings read alike, the source gives them in different places.
# Tests used:
# [1] = target: AT1 Receptor (AT1R) (Homo sapiens (Human), UniProt P30556); assay: Inhibitory activity on AT1 receptor (Tag-lite HTRF, Tb-labeled AT1R cells, angiotensin receptor red agonist); assay type: binding; details: 1 h at room temperature
# [2] = target: AT2 Receptor (AT2R) (Homo sapiens (Human), UniProt P50052); assay: Inhibitory activity on AT2 receptor (Tag-lite HTRF, Tb-labeled AT2R cells, angiotensin receptor red agonist); assay type: binding; details: 1 h at room temperature
# [3] = Pharmacokinetic (PK) test in mice; assay type: in vivo; details: male ICR mice, plasma; for bioavailability / AUC(0-t) / MRT last / half-life / AUC(0-inf) / Cmax: mouse; for bioavailability: PO 20 mg/kg vs IV 3 mg/kg; for AUC(0-inf): read-out: AUCINF_obs; for Cmax: read-out: C0/Cmax
# Protocol: To male ICR mice, the solution of Compound C2 (1 mg/mL) of the present invention and the solution of control Compound A (1 mg/mL) were administered intravenously (IV) and intragastrically (PO), in both of which the vehicle system is DMSO, solutol and deionized water (1:2:17, v:v:v). For Compound C2 and Compound A, the IV and PO dosages were 3 mg/kg and 20 mg/kg, respectively. For IV administration, blood was collected from the ophthalmic venous plexus of the mice at (0) horn before the administration and at 0.083, 0.25, 0.5, 1, 2, 4, 6, 8, and 24 horns after the administration, while for PO administration, blood was collected from ophthalmic venous plexus of the mice at (0) hour before the administration and at 0.25, 0.5, 1, 2, 4, 6, 8, and 24 horns after the administration. For Compound C2, a 0.05 mL blood sample was taken at each time point, while for Compound A, a 0.03 mL blood sample was taken at each time point. The collected blood sample was placed in a clean sample tube containing EDTA-K2 (4%), and centrifuged at 5000 rpm at 4° C. for 5 minutes. The resulting plasma was transferred to another clean sample tube, and stored at −20° C. LC-MS/MS analysis was performed on the plasma samples. The pharmacokinetic parameters were calculated using WinNonlin 6.3 software.
# Sequence of AT1 Receptor (AT1R) (P30556 whole entry): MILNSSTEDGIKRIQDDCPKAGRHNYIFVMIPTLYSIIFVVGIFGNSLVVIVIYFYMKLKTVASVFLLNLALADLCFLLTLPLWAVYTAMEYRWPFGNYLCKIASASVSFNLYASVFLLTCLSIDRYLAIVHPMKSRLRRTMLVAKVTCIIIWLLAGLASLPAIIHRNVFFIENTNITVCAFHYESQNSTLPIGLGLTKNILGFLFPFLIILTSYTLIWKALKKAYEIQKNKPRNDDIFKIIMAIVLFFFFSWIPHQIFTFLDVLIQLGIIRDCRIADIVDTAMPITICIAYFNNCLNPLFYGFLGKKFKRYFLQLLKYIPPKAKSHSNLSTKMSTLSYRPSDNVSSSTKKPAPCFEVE
# Sequence of AT2 Receptor (AT2R) (P50052 whole entry): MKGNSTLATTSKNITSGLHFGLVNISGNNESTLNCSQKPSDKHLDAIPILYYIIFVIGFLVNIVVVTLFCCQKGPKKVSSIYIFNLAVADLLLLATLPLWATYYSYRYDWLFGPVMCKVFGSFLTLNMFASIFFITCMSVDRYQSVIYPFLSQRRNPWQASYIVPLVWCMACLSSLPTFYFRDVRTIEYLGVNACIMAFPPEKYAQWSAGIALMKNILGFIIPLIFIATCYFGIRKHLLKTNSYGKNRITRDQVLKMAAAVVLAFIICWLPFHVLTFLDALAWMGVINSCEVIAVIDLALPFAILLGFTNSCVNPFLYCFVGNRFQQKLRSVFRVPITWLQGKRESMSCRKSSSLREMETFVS
SMILES,IC50 [1] [nM],IC50 [2] [nM],further results
"O=C(O)[C@@H]1CN(C(=O)N(c2ccccc2)c2ccccc2)CCN1C(=O)C1(c2ccccc2)CCCCC1 [Compound C80, (S)-4-(diphenylcarbamoyl)-1-(1-phenylcyclohexanecarbonyl) piperazine-2-carboxylic acid]",> 10000,12.7,
"O=C(O)[C@@H]1CN(C(=O)C(c2ccccc2)c2ccccc2)CCN1C(=O)N1c2ccccc2C=Cc2ccccc21 [Compound C4, (S)-1-(5H-dibenzo [b,f]azepine-5-carbonyl)-4-(2,2-diphenylacetyl) piperazine-2-carboxylic acid]",> 10000,45.1,
"O=C1Cc2ccccc2N(C(=O)N2CCN(C(=O)N(c3ccccc3)c3ccccc3)C[C@H]2C(=O)O)c2ccccc21 [Compound C77, (S)-4-(diphenylcarbamoyl)-1-(10-oxo-10,11-dihydro-5H-dibenzo[b,f]azepine-5-carbonyl)piperazine-2-carboxylic acid]",> 10000,32.3,
"O=C(O)[C@@H]1CN(C(=O)N(c2ccccc2)c2ccccc2)CCN1C(=O)N1c2ccccc2Sc2ccccc21 [Compound C20, (S)-4-(diphenylcarbamoyl)-1-(10H-phenothiazine-10-carbonyl)piperazine-2-carboxylic acid]",> 10000,36.7,
"O=C(O)[C@@H]1CN(C(=O)N2c3ccccc3Sc3ccccc32)CCN1C(=O)N(c1ccccc1)c1ccccc1 [Compound C44, (S)-1-(diphenylcarbamoyl)-4-(10H-phenothiazine-10-carbonyl)piperazine-2-carboxylic acid]",> 10000,62.6,
"O=C(O)[C@@H]1CN(C(=O)N2c3ccccc3C=Cc3ccccc32)CCN1C(=O)C(c1ccccc1)c1ccccc1 [Compound C5, (S)-4-(5H-dibenzo [b,f]azepine-5-carbonyl)-1-(2,2-diphenylacetyl) piperazine-2-carboxylic acid]",> 10000,6.47,
"COC1=Cc2ccccc2N(C(=O)N2CCN(C(=O)N(c3ccccc3)c3ccccc3)C[C@H]2C(=O)O)c2ccccc21 [Compound C50, (S)-4-(diphenylcarbamoyl)-1-(10-methoxy-5H-dibenzo[b,f]azepine-5-carbonyl) piperazine-2-carboxylic acid]",> 10000,,
"O=C(O)[C@@H]1CN(C(=O)N2c3ccccc3C=Cc3ccccc32)CCN1C(=O)N1c2ccccc2C=Cc2ccccc21 [Compound C3, (S)-1,4-bis(5H-dibenzo[b,f]azepine-5-carbonyl) piperazine-2-carboxylic acid]",> 10000,32.5,
"O=C(O)[C@@H]1CN(C(=O)N(c2ccccc2)c2ccccc2)CCN1C(=O)N(c1ccccc1)c1ccccc1 [A, reference compound]",,,"CL_obs ([3]; IV, 3 mg/kg): 41.8933 mL/min/kg; bioavailability [3]: 6.26%; AUC(0-t) ([3]; IV, 3 mg/kg): 1190 ng·h/mL; MRT last ([3]; IV, 3 mg/kg): 0.29 h; half-life ([3]; IV, 3 mg/kg): 0.5 h; AUC(0-inf) ([3]; IV, 3 mg/kg): 1200 ng·h/mL; Cmax ([3]; IV, 3 mg/kg): 7170 ng/mL; AUC(0-t) ([3]; PO, 20 mg/kg): 495 ng·h/mL; MRT last ([3]; PO, 20 mg/kg): 1.06 h; half-life ([3]; PO, 20 mg/kg): 0.872 h; AUC(0-inf) ([3]; PO, 20 mg/kg): 499 ng·h/mL; Cmax ([3]; PO, 20 mg/kg): 366 ng/mL"
"O=C(O)[C@@H]1CN(C(=O)N(c2ccccc2)c2ccccc2)CCN1C(=O)N1c2ccccc2C=Cc2ccccc21 [Compound C2, (S)-1-(5H-dibenzo[b,f]azepine-5-carbonyl)-4-(diphenylcarbamoyl) piperazine-2-carboxylic acid]",> 10000,20.3,"CL_obs ([3]; IV, 3 mg/kg): 1.010 mL/min/kg; bioavailability [3]: 45.7%; AUC(0-t) ([3]; IV, 3 mg/kg): 49000 ng·h/mL; MRT last ([3]; IV, 3 mg/kg): 1.9 h; half-life ([3]; IV, 3 mg/kg): 4.51 h; AUC(0-inf) ([3]; IV, 3 mg/kg): 49500 ng·h/mL; Cmax ([3]; IV, 3 mg/kg): 43400 ng/mL; AUC(0-t) ([3]; PO, 20 mg/kg): 151000 ng·h/mL; MRT last ([3]; PO, 20 mg/kg): 2.34 h; half-life ([3]; PO, 20 mg/kg): 3.05 h; AUC(0-inf) ([3]; PO, 20 mg/kg): 151000 ng·h/mL; Cmax ([3]; PO, 20 mg/kg): 62000 ng/mL"
"CN(C)S(=O)(=O)NC(=O)[C@@H]1CN(C(=O)N(c2ccccc2)c2ccccc2)CCN1C(=O)N1c2ccccc2C=Cc2ccccc21 [Compound C33, (S)-4-(5H-dibenzo[b,f]azepine-5-carbonyl)-N^3—(N,N-dimethylsulphamoyl)-N^1,N^1-phenylpiperazine-1,3-dicarboxamide]",> 10000,35.9,
"O=C(O)[C@H]1CN(C(=O)N2c3ccccc3C=Cc3ccccc32)CCN1C(=O)N(c1ccccc1)c1ccccc1 [Compound C45, (R)-4-(5H-dibenzo[b,f]azepine-5-carbonyl)-1-(diphenylcarbamoyl) piperazine-2-carboxylic acid]",> 10000,55.5,
"O=C(O)[C@H]1CN(C(=O)N(c2ccccc2)c2ccccc2)CCN1C(=O)N1c2ccccc2C=Cc2ccccc21 [Compound C46, (R)-1-(5H-dibenzo [b,f]azepine-5-carbonyl)-4-(diphenylcarbamoyl) piperazine-2-carboxylic acid]",> 10000,54.5,
"O=C(O)[C@@H]1CN(C(=O)C(c2ccccc2)c2ccccc2)CCN1C(=O)C1(c2ccccc2)CCCCC1 [Compound C81, (S)-4-(2,2-diphenylacetyl)-1-(1-phenylcyclohexanecarbonyl) piperazine-2-carboxylic acid]",> 10000,,
"COc1ccccc1N(C(=O)N1CCN(C(=O)N2c3ccccc3CC(=O)c3ccccc32)[C@H](C(=O)O)C1)c1ccccc1OC [Compound C94, (S)-4-(bis(2-methoxylphenyl)carbamoyl)-1-(10-oxo-10,11-dihydro-5H-dibenzo [b,f]azepine-5-carbonyl)piperazine-2-carboxylic acid]",> 10000,,
"O=C1Cc2ccccc2N(C(=O)N2CCN(C(=O)N(c3ccc(F)cc3)c3ccc(F)cc3)C[C@H]2C(=O)O)c2ccccc21 [Compound C105, (S)-4-(bis(4-fluorinephenyl)carbamoyl)-1-(10-oxo-10,11-dihydro-5H-dibenzo [b,f]azepine-5-carbonyl)piperazine-2-carboxylic acid]",,161,
CS(=O)(=O)NC(=O)[C@@H]1CN(C(=O)N2c3ccccc3CC(=O)c3ccccc32)CCN1C(=O)N(c1ccccc1)c1ccccc1 [Compound C149],,290,
"O=C(O)[C@@H]1CN(C(=O)N2c3ccccc3C=Cc3ccccc32)CCN1C(=O)N(c1ccccc1)c1ccccc1 [Compound C1, (S)-4-(5H-dibenzo[b,f]azepine-5-carbonyl)-1-(diphenylcarbamoyl) piperazine-2-carboxylic acid]",> 10000,18.8,
CN1C(=O)c2ccccc2N(C(=O)N2CCN(C(=O)N(c3ccccc3)c3ccccc3)C[C@H]2C(=O)O)c2ccccc21 [Compound C96],,13.1,
"O=C(O)[C@@H]1CN(C(=O)N2c3ccccc3Sc3ccccc32)CCN1C(=O)C(c1ccccc1)c1ccccc1 [Compound C12, (S)-1-(2,2-diphenylacetyl)-4-(10H-phenothiazine-10-carbonyl) piperazine-2-carboxylic acid]",> 10000,43.7,
"COc1ccccc1N(C(=O)N1CCN(C(=O)N2c3ccccc3C=Cc3ccccc32)[C@H](C(=O)O)C1)c1ccccc1 [Compound C113, (S)-1-(5H-dibenzo[b,f]azepine-5-carbonyl)-4-((2-methoxylphenyl) (phenyl)carbamoyl) piperazine-2-carboxylic acid]",,7.37,
"O=C(O)[C@@H]1CN(C(=O)N(c2ccccc2)c2ccccc2)CCN1C(=O)C1(O)c2ccccc2-c2ccccc21 [Compound C85, (S)-4-(diphenylcarbamoyl)-1-(9-hydroxy-9H-fluorene-9-carbonyl)piperazine-2-carboxylic acid]",,461,
